The values below come from patent US10894775B2, “Piperidine derivatives as liver X receptor beta agonists, compositions, and their use” (Merck Sharp & Dohme Corp., priority 2016, dated 2021).

In assay [1] the target is T1, glutathione-S-transferase (GST) tagged LXRbeta LBD (ligand binding domain) (Homo sapiens, UniProt P55055).
T1 construct: purchased Invitrogen pv4658.pps
T1 sequence (P55055 222-460 limits assumed): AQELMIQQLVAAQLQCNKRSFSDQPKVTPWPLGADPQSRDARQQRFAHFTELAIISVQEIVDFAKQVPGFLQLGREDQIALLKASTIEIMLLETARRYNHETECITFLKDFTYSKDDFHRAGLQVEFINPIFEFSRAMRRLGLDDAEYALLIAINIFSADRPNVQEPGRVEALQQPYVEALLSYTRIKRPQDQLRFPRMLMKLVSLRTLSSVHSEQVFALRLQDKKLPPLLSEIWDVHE
Put plainly: LanthaScreen TR-FRET Liver X Receptor Coactivator Assay, LXR beta. It counts as biochemical. The conditions noted are these: for Emax: read-out: LXR beta actiivty at max dose (%); for EC50: potency (Inflection Point) of compound-induced co-activator recruitment, TR-FRET. The method, boiled down:
(§1)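 TR-FRET coactivator recruitment read-out: compounds first received either LBD, followed by a mix of terbium-labelled anti-GST antibody and fluorescein coactivator peptide. Signal measured by time-resolved FRET once plates had incubated at room temperature.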
On the technique in general: TR-FRET usually uses a lanthanide donor and a delayed reading to cut background.

The target of assay [2] is T2, glutathione-S-transferase (GST) tagged LXRalpha LBD (ligand binding domain) (Homo sapiens, UniProt Q13133).
T2 construct: purchased Invitrogen pv4655
T2 sequence (Q13133 209-447 limits assumed): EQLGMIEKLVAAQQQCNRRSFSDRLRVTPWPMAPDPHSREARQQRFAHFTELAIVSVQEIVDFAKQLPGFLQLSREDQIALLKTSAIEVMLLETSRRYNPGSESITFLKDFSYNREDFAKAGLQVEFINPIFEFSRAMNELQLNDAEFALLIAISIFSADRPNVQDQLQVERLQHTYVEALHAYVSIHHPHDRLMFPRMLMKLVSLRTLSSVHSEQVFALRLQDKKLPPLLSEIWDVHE
Put plainly: LanthaScreen TR-FRET Liver X Receptor Coactivator Assay, LXR alpha. The class given is biochemical. As to conditions: for Emax: efficacy (Emax) in relation to reference dual agonist T0901317, read-out: LXR alpha actiivty at max dose (%); for EC50 / LXR alpha IP (nM): potency (Inflection Point) of compound-induced co-activator recruitment, TR-FRET; for EC50: read-out: LXR alpha IP. The method, boiled down: as §1

[3] abbreviates: efficacy (Emax) in relation to reference dual agonist T0901317.

Where two headings read alike, the source gives them in different places.

Consider `CN(Cc1ccc(C(=O)N(C)C)c(Cl)c1)CC1CC12CCN(C(=O)C(C)(C)c1ccccc1)CC2` (centres unmarked) [Example 14-1, 2-chloro-N,N-dimethyl-4-((methyl((6-(2-methyl-2-phenylpropanoyl)-6-azaspiro[2.5]octan-1-yl)methyl)amino)methyl)benzamide], for which the Emax in assay [1] (setting [3]) came out at 99%; in assay [2], 33%. Further, the figures for the EC50 in assay [1] (read-out: LXR beta IP) and in assay [2] were 1260 nM and 15500 nM, respectively.
On the same counts, the results for `CN(C)C(=O)c1ccc(CCCC2CC3(CCN(C(=O)C(O)(c4ccccc4)C(F)(F)F)CC3)C2)cc1Cl` (single isomer, unassigned) [Example 16-2, 2-chloro-N,N-dimethyl-4-(3-(7-((R or S)-3,3,3-trifluoro-2-hydroxy-2-phenylpropanoyl)-7-azaspiro[3.5]nonan-2-yl)propyl)benzamide] are 113%, 29%, 59 nM and 772 nM.
For the compound `CC(CC1CC12CCN(C(=O)C1(c3ccccc3)CCC1)CC2)Nc1ccc(C(=O)N(C)C)c(Cl)c1` (single isomer, unassigned) [Example 5-1, 2-chloro-N,N-dimethyl-4-(1-((S or R)-6-(1-phenylcyclobutanecarbonyl)-6-azaspiro[2.5]octan-1-yl)propan-2-ylamino)benzamide], the EC50 in assay [1] (LXR beta IP (nM)) was 5 nM; in assay [2], 220 nM. Moreover, the values for the Emax in assay [1] and in assay [2] were 41% and 56%, respectively.
With `COc1cccc(C(O)(C(=O)N2CCC3(CCC(Sc4ccc(C(=O)N(C)C)c(Cl)c4)CC3)CC2)C(F)(F)F)c1` (single isomer, unassigned) [Example 19-1, 2-chloro-N,N-dimethyl-4-(3-((R or S)-3,3,3-trifluoro-2-hydroxy-2-(3-methoxyphenyl)propanoyl)-3-azaspiro[5.5]undecan-9-ylthio)benzamide], the figures for the EC50 in assay [1] (LXR beta IP (nM)) and in assay [2] were 58 nM and 1060 nM, respectively. Further, the Emax in assay [1] was 101%; in assay [2] it was 23%.
As for `CNC(=O)c1ccc(NCCCCC2CCN(C(=O)C(O)(c3cccc(OC)c3)C(F)(F)F)CC2)cc1F` (single isomer, unassigned) [Example 1-6, (R or S)-2-fluoro-N-methyl-4-(4-(1-(3,3,3-trifluoro-2-hydroxy-2-(3-methoxyphenyl)propanoyl)piperidin-4-yl)butylamino)benzamide], the Emax in assay [1] (setting [3]) came out at 63%; in assay [2] it was 16%. The EC50 is 102 nM in assay [1] (read-out: LXR beta IP) and 3300 nM in assay [2].
As for `CN(C)C(=O)c1ccc(NC[C@H]2C[C@H]2C2CCN(C(=O)[C@](O)(c3ccccc3)C(F)(F)F)CC2)cc1Cl` (single isomer, unassigned) [Example 8-3, 2-chloro-N,N-dimethyl-4-(((1S,2S or 1R,2R)-2-(1-((R or S)-3,3,3-trifluoro-2-hydroxy-2-phenylpropanoyl)piperidin-4-yl)cyclopropyl)methylamino)benzamide], the results for the Emax in assay [1] (setting [3]) and in assay [2] were 50% and 35%, respectively. Further, the results for the EC50 in assay [1] (read-out: LXR beta IP) and in assay [2] were 4 nM and 421 nM, respectively.
As for `O=C(c1ccc(NCCC[C@@H]2CC23CCN(C(=O)[C@](O)(c2ccccc2)C(F)(F)F)CC3)cc1Cl)N1CCCC1` (single isomer, unassigned) [Example 6-4, (R or S)-1-((R or S)-1-(3-(3-chloro-4-(pyrrolidine-1-carbonyl)phenylamino)propyl)-6-azaspiro[2.5]octan-6-yl)-3,3,3-trifluoro-2-hydroxy-2-phenylpropan-1-one], the Emax in assay [1] (setting [3]) was 18%. Also, in assay [1] (read-out: LXR beta IP), the EC50 was determined as 34 nM. Moreover, in assay [2], the Emax is 6% and the “LXR alpha IP (nM)” value was “No IP”.
For `CNC(=O)c1ccc(CCCCCC2CCN(C(=O)C(O)(c3ccccc3)C(F)(F)F)CC2)cc1Cl` (single isomer, unassigned) [Example 15-7, (R or S)-2-chloro-N-methyl-4-(5-(1-(3,3,3-trifluoro-2-hydroxy-2-phenylpropanoyl)piperidin-4-yl)pentyl)benzamide], the Emax in assay [1] (setting [3]) came out at 93%; in assay [2] it was 40%. Besides, the EC50 in assay [1] (read-out: LXR beta IP) came out at 6 nM; in assay [2] it was 327 nM.
For `CN(C)C(=O)c1ccc(NCCCCC2CCN(C(=O)OCc3ccccc3)CC2)cc1Cl` [Example 1-14, benzyl 4-(4-(3-chloro-4-(dimethylcarbamoyl)phenylamino)butyl)piperidine-1-carboxylate] the same measures were 41%, 14%, 106 nM and 1970 nM.
As for `CN(C)C(=O)c1ccc(N(C)CCC2CC23CCN(C(=O)C(C)(C)c2ccccc2)CC3)cc1Cl` (single isomer, unassigned) [Example 9-1, (S or R)-2-chloro-N,N-dimethyl-4-(methyl(2-(6-(2-methyl-2-phenylpropanoyl)-6-azaspiro[2.5]octan-1-yl)ethyl)amino)benzamide], the Emax in assay [1] (setting [3]) is 80%; in assay [2], 22%. In addition, the EC50 in assay [1] (read-out: LXR beta IP) is 29 nM; in assay [2], 797 nM.
As for `CNC(=O)c1ccc(CCCCCC2CCN(C(=O)C(O)(c3cccc(OC)c3)C(F)(F)F)CC2)cc1Cl` (single isomer, unassigned) [Example 15-6, (R or S)-2-chloro-N-methyl-4-(5-(1-(3,3,3-trifluoro-2-hydroxy-2-(3-methoxyphenyl)propanoyl)piperidin-4-yl)pentyl)benzamide], the Emax in assay [1] (setting [3]) was found to be 96%; in assay [2], 27%. For the same compound, the EC50 is 6 nM in assay [1] (read-out: LXR beta IP) and 381 nM in assay [2].
For `CNC(=O)c1ccc(NCCCCC2CCN(C(=O)C(O)(c3cccc(Cl)c3)C(F)(F)F)CC2)cc1Cl` (single isomer, unassigned) [Example 1-5, (R or S)-2-chloro-4-(4-(1-(2-(3-chlorophenyl)-3,3,3-trifluoro-2-hydroxypropanoyl)piperidin-4-yl)butylamino)-N-methylbenzamide] the same measures were 72%, 32%, 8 nM and 239 nM.
On to `CNC(=O)c1ccc(NCCCCC2CCN(C(=O)C(O)(c3cc(Cl)cc(Cl)c3)C(F)(F)F)CC2)cc1Cl` (single isomer, unassigned) [Example 1-11, (R or S)-2-chloro-4-(4-(1-(2-(3,5-dichlorophenyl)-3,3,3-trifluoro-2-hydroxypropanoyl)piperidin-4-yl)butylamino)-N-methylbenzamide], for which the Emax in assay [1] (setting [3]) came out at 29%; in assay [2], 0%. For the same compound, the EC50 in assay [1] (read-out: LXR beta IP) turned out to be 3 nM. For the same compound, the “LXR alpha IP (nM)” value in assay [2] is “No IP”.
For `CCc1cccc(C(O)(C(=O)N2CCC(CCCCNc3ccc(C(=O)NC)c(Cl)c3)CC2)C(F)(F)F)c1` (single isomer, unassigned) [Example 1-8, (S or R)-2-chloro-4-(4-(1-(2-(3-ethylphenyl)-3,3,3-trifluoro-2-hydroxypropanoyl)piperidin-4-yl)butylamino)-N-methylbenzamide], the Emax in assay [1] (setting [3]) is 52%. Moreover, the EC50 in assay [1] (read-out: LXR beta IP) came out at 4 nM. Further, in assay [2], the Emax amounted to 12% and the “LXR alpha IP (nM)” value is given as “No IP”.
